What all share (type): physicochemical
The nature of data set [1]: Measurement of tap density. The following applies: tapped 3 minutes at 60 times/minute. As for the experimental part:
A tap density of a powder of the compound A is preferably in the range of about 0.1 to about 0.4 g/cm^3, and more preferably in the range of about 0.1 to about 0.3 g/cm^3. A tap density can be measured by known method. It includes, for example, the method that about 3 g sample is precisely weighed, it is put into dried 50 mL graduated cylinder (scale: by 0.1 mL) without consolidation, the graduated cylinder is set on tapping machine for tap density, then it is tapped for 3 minutes at 60 times/minute, final tap density is found, and value that the weight (g) of particulate is divided by final tap density (cm^3) of particulate is assumed tap density (g/cm^3), and method described in the following Examples and so on.
About 3 g of the powder of compound A is precisely weighed, it is put into dried 50 mL graduated cylinder (scale: by 0.1 mL) without consolidation, the graduated cylinder is set on tapping machine for tap density, then it is tapped for 3 minutes at 60 times/minute, final tap density is found. The value that the weight (g) of particulate is divided by final bulk density (cm^3) of particulate is assumed tap density (g/cm^3). As a result, the tap density of the powder of compound A prepared in Adjustment Example 4(3) was 0.28 g/cm^3 (non-crushing composition) and 0.13 g/cm^3 (crushing composition). The tap density of tie powder of compound A prepared in Adjustment Example 4(4) was 0.23 g/cm^3 (non-crushing composition) and 0.16 g/cm^3 (crushing composition).[

The nature of data set [2]: Accelerated test (storage stability: purity by HPLC, degree of moisture by Karl Fisher). To be noted: for Degree of moisture (%) / Purity (%): crushing composition. Here is the method: 1 g of the powder of compound A was poured into the two-lay plastic bag and closed firmly with banding band. This was poured into miniature fiber dram and then this was preserved in the stability tester under the condition for 6 months, at 40° C., at 75% relative humidity. And then, the purity (quantitative value) and the degree of moisture (%) of the powder of compound A were measured. The measurement of the degree of moisture was performed by known method: the moisture vaporization method/Karl Fisher electrometrical titration method. The measurement of purity was performed by high performance liquid chromatography (HPLC).
About 0.04 mg/mL N,N-dimethylformamide/acetontirile (3/7) solution of reference material and measurement sample of compound A was prepared. In this case, the concentration of the solutions was precisely found. These solutions was set under the below test condition and the purity of measurement sample was calculated from the obtained area value of the peak.
• The detector: ultraviolet absorptiometer (measurement wavelength: 278 nm), • The column: YMC-Pack ODS-A-302 (inside diameter 4.6 mm, length 15 cm), • The mobile phase: acetonitrile/5 mmol/L sodium acetate buffer (It was prepared to pH 4.5 using acetate.)/2-propanol mixture (5/4/1), • The flow: The retention time of the compound A was prepared to be about 12 minutes (about 1.0 mL/min), • The column temperature: the constant temperature in the vicinity of 40° C. • The injection volume: 20 μL.

Data set [3] can be described thus: Measurement of bulk density. Here is the method:
A bulk density of a powder of the compound A is preferably in the range of about 0.05 to about 0.3 g/cm^3, and more preferably in the range of about 0.05 to about 0.2 g/cm^3. A bulk density can be measured by known method. It includes, for example, the method that about 3 g sample is precisely weighed, it is put into dried 50 mL graduated cylinder (scale: by 0.1 mL) without consolidation, it reads to minimum unit of scale and value that the weight (g) of particulate is divided by the volume (cm^3) of particulate is assumed bulk density (g/cm^3), and method described in the following Examples and so on.
About 3 g of compound A is precisely weighed, it is put into dried 50 mL graduated cylinder (scale: by 0.1 mL) without consolidation, it reads to minimum unit of scale. The value that the weight (g) of particulate is divided by the volume (cm^3) of particulate is assumed bulk density (g/cm^3). As a result, the bulk density of the powder of compound A prepared in Adjustment Example 4(3) was 0.18 g/cm^3 (non-crushing composition) and […] (crushing composition). The bulk density of compound A prepared in Adjustment Example 4(4) was 0.18 g/cm^3 (non-crushing composition) and 0.08 g/cm^3 (crushing composition).

Data set [4] is described as follows: Specific surface area of the powder, multipoint BET method. Here is the method: A specific surface area of a powder of the compound A obtained by the above-described methods and the following Examples can be measured by known method, for example, multipoint BET method.
A specific surface area of the compound A was adjusted to give the crystalline powders with different specific surface area by the following method. As well, the measurement of specific surface area was performed by multipoint BET method.

Where [5] appears, read: 6 months at 40°C, 75% relative humidity.
Where [6] appears, read: over 6 months at 40°C, 75% relative humidity.
Setting [7] is: crushing composition (jet mill crushed).

As for `Cc1ccc(-c2nc(CCOc3cccc4c3CCC=C4CCC(=O)O)c(C)o2)cc1` [Adjustment Example 4(4), 3-(5-{2-[5-methyl-2-(4-methylphenyl)-1,3-oxazol-4-yl]ethoxy}-3,4-dihydronaphthalen-1-yl)propanoic acid], the tap density in data set [1] (crushing composition) worked out at 0.16 g/mL; in data set [1] (non-crushing composition) it was 0.23 g/mL. Moreover, the “Degree of moisture (%)” value in data set [2] (0 month) and in data set [2] (setting [5]) was 0.1% each time. For the same compound, the “Purity (%)” value turned out to be 98.5% in data set [2] (0 month) and 98.2% in data set [2] (setting [5]). Moreover, in data set [2] (setting [5]), the long-term storage stability result is “stable in long-term storage”. In data set [2] (setting [6]), the “change (increase) of degree of moisture” value was “no change”. Besides, the decrease of purity in data set [2] (setting [6]) turned out to be 0.3%. The bulk density in data set [3] (crushing composition) was 0.08 g/mL; in data set [3] (non-crushing composition), 0.18 g/mL. Moreover, the specific surface area was found to be 13.4 m^2/g in data set [4] (setting [7]) and 11.2 m^2/g in data set [4] (non-crushing composition).
Turning to `Cc1ccc(-c2nc(CCOc3cccc4c3CCC=C4CCC(=O)O)c(C)o2)cc1` [Adjustment Example 4(3), 3-(5-{2-[5-methyl-2-(4-methylphenyl)-1,3-oxazol-4-yl]ethoxy}-3,4-dihydronaphthalen-1-yl)propanoic acid], the tap density in data set [1] (crushing composition) amounted to 0.13 g/mL; in data set [1] (non-crushing composition), 0.28 g/mL. For the same compound, the figures for the bulk density in data set [3] (crushing composition) and in data set [3] (non-crushing composition) were 0.8 g/mL and 0.18 g/mL, respectively. The specific surface area was 12.7 m^2/g in data set [4] (setting [7]) and 11.0 m^2/g in data set [4] (non-crushing composition).

(Values after patent publication US20080026067A1, “Method for Increasing Specific Surface Area of Slightly Soluble Drug” (priority 2004, published 2008).)
